1 compound from patent US20230218654A1, “COMPOSITIONS AND METHODS FOR TREATING HYPERGLYCEMIA IN TYPE-2 DIABETES” (The Board of Regents of the university of Oklahoma, priority 2020, published 2023) can be followed below.

“Also recorded” adds a separate entry of the source.

In this experiment the test system is AML12 mouse hepatocytes. The experiment is described as follows: Western blot of insulin signaling and cullin neddylation in AML12 cells. In kind it is cell-based. On the procedure:
MLN4924 increases IRS protein and AKT activation in the presence of insulin. Mouse AML 12 hepatocytes were serum starved for 16 h. Cells were then pre-treated with MLN4924 for 1 h followed by 100 nM insulin stimulation for 4 h. Western blot was then performed to evaluate insulin signaling activation.
AML 12 cells were serum starved for 16 h. Cells were then pre-treated with 500 nM MLN4924 or vehicle (DMSO) for 1 h, followed by 100 µg/ml cycloheximide (CHX) and 100 nM insulin treatment.
AML12 cells were serum starved for 16 h. Cells were then pre-treated with 500 nM MLN4924 for 1 h followed by 100 nM insulin stimulation in time course.
FIG. 18A is a Western blot analysis showing that MLN4924 enhances hepatocyte insulin responsiveness (signaling) by delaying feedback IRS degradation. AML12 cells were serum starved for 16 h. Cells were then pre-treated with MLN4924 for 1 h followed by insulin stimulation for 4 h.
FIG. 18D is a Western blot analysis of insulin signaling in AML12 cells serum starved for 16 h, then pre-treated with 500 nM MLN4924 for 1 h followed by 100 nM insulin stimulation in time course.
FIG. 18E is a Western blot analysis of AML12 cells serum starved for 16 h then pre-treated with 500 nM MLN4924 or vehicle (DMSO) for 1 h, followed by 100 µg/ml cycloheximide (CHX) and 100 nM insulin treatment. Cells were collected at the indicated time for Western blotting.
FIG. 18F is a Western blot analysis of insulin signaling in AML12 cells serum starved for 16 h then pre-treated with 100 nM rapamycin and 500 nM MLN4924 as indicated for 1 h followed by additional 2 h incubation in the presence or absence of 100 nM insulin. Blots are representative of 2-4 independent experiments.
FIG. 20 is a Western blot analysis showing that MLN4924 enhances hepatocyte insulin responsiveness in cells treated with wortmannin by delaying feedback IRS degradation (related to FIG. 18A). AML12 cells were serum starved for 16 h then pre-treated with 1 µM wortmannin (Wort) and 500 nM MLN4924 as indicated for 1 h followed by additional 2 h incubation in the presence or absence of 100 nM insulin. Blots are representative of 2 independent experiments.
FIG. 21 is a Western blot analysis showing that MLN4924 enhances hepatocyte insulin responsiveness in cells treated with Torin 1 by delaying feedback IRS degradation (related to FIG. 18A). AML12 cells were serum starved for 16 h then pre-treated with 250 nM Torin1 and 500 nM MLN4924 as indicated for 1 h followed by additional 2 h incubation in the presence or absence of 100 nM insulin. Blots are representative of 2 independent experiments.
MLN4924 and TAS4464 were purchased from MedChemExpress (MCE, Monmouth Junction, NJ). For cell treatment, MLN4924 and TAS4464 were dissolved in DMSO. Cells were serum starved overnight and then treated with MLN4924, TAS4464 and/or insulin as indicated. For injection in mice, MLN4924 and TAS4464 were first dissolved in DMSO, which was further suspended in 10% (2-hydroxypropyl)-β-cyclodextrin (Sigma, St. Louis, MO). The final solution contains 1% DMSO. The subcutaneous injection volume is 200 µl/mouse.
Protein lysates were prepared in RIPA buffer containing 1% SDS and protease inhibitors on ice for 1 h followed by brief sonication. After centrifugation, supernatant was used for SDS-PAGE and immunoblotting.
AML12 cells were a generous gift from Dr. Yanqiao Zhang (Northeast Ohio Medical University). AML12 cells were cultured in DMEM medium supplemented with a mixture of insulin-transferrin-selenium (#41400-045, ThermoFisher, Waltham, MA). For experiments, cells were cultured in serum free medium overnight before various treatments were initiated. The siGENOME SMARTpool siRNA and siControl were purchased from Dharmacon, Inc. (Lafayette, CO). The siRNA was transfected with Lipofectamine RNAiMAX reagent in a final concentration of 25 nM recommended by the manufacturer. […]

The mark [1] stands for this setting: insulin stimulated, MLN4924 pre-treatment 1 h, insulin 4 h.

Regarding `NS(=O)(=O)OC[C@@H]1C[C@@H](n2ccc3c(N[C@H]4CCc5ccccc54)ncnc32)C[C@@H]1O` [MLN4924, ((1S,2S,4R)-4-(4-((1S)-2,3-dihydro-1H-inden-1-ylamino)-7H-pyrrolo[2,3-d]pyrimidin-7-yl)-2-hydroxycyclopentyl) methyl sulfamate], the “IRS protein in the presence of rapamycin” value (500 nM MLN4924 + 100 nM rapamycin, 100 nM insulin) is listed as “did not further increase IRS protein”. Also, the “IRS1 S307 phosphorylation” value (500 nM, 100 nM insulin time course) is “also higher”. Where the note is “500 nM, 1 h, then 100 nM insulin in time course”, the “insulin signaling desensitization (IRS1(Y612), AKT(S473))” value is recorded as “significantly delayed cellular insulin desensitization; also recorded: significantly delayed insulin signaling desensitization”. Under “500 nM, 100 µg/ml cycloheximide (CHX) and 100 nM insulin”, the “insulin-induced IRS degradation” value is “significantly delayed”. Moreover, the “further MLN4924-mediated IRS enrichment and insulin sensitization” value (Cul1 or Cul3 knockdown cells, 500 nM) is given as “limited but not fully abolished”. Besides, under setting [1], the “AKT S473 phosphorylation” value was “increased AKT S473 phosphorylation”; the “IR (Y1150) phosphorylation” value is recorded as “but not IR (Y1150) phosphorylation”; the “IRS1(Y612) phosphorylation” value is listed as “enhanced IRS1(Y612) phosphorylation”; the “total IRS1 and IRS2 protein” value is “dose-dependently increased total IRS1 and IRS2 protein”. The “further IRS protein stabilization caused by MLN4924” value (simultaneous knockdown of Cul1 and Cul3, 500 nM) is on record as “largely abolished”.
